From US8465724B2, “Multi-drug ligand conjugates” (Endocyte, Inc., priority 2005, dated 2013) come the findings set out here.

Molecules are shown by their SMILES. Entries after “also recorded” stand apart in the source; their conditions may differ.

Data set [1] has as its target T1, folate receptors (FRs) on KB cells (Homo sapiens, UniProt P15328).
T1 construct: FR-positive KB cells were heavily seeded into 24-well cell culture plates; endogenous in cells; host or cells: KB cells
In words: Relative affinity assay (displacement of 3H-folic acid). In kind it is binding. As to conditions: relative to folic acid, set to 1, 100 nM 3H-folic acid. The procedure:
The affinity for folate receptors (FRs) relative to folate was determined according to a previously described method (Westerhof, G. R., J. H. Schomagel, et al. (1995) Mol. Pharm. 48: 459-471) with slight modification. Briefly, FR-positive KB cells were heavily seeded into 24-well cell culture plates and allowed to adhere to the plastic for 18 h. Spent incubation media was replaced in designated wells with folate-free RPMI (FFRPMI) supplemented with 100 nM ^3H-folic acid in the absence and presence of increasing concentrations of test article or folic acid. Cells were incubated for 60 min at 37° C. and then rinsed 3 times with PBS, pH 7.4. Five hundred microliters of 1% SDS in PBS, pH 7.4, were added per well. Cell lysates were then collected and added to individual vials containing 5 mL of scintillation cocktail, and then counted for radioactivity. Negative control tubes contained only the ^3H-folic acid in FFRPMI (no competitor). Positive control tubes contained a final concentration of 1 mM folic acid, and CPMs measured in these samples (representing non-specific binding of label) were subtracted from all samples.

The subject of data set [2] is KB, 4T-1c12, and ID8-c115 tumor cell lines. In words: In vitro cytotoxic activity on three tumor cell lines. Conditions: 4T-1c12, ID8-c115, plus excess folic acid.
Data set [3] concerns folate receptor negative 4T1 tumors. In words: 4T-1 tumor volume assay. Type of data set: in vivo, Balb/c mice. As to conditions: 2 μmol/kg TIW for two weeks. Here is the method: Six to seven week-old mice (female Balb/c strain) were obtained from Harlan, Inc., Indianapolis, Ind. The mice were maintained on Harlan's folate-free chow for a total of three weeks prior to the onset of and during this experiment. Folate receptor-negative 4T-1 tumor cells (1×10^6 cells per animal) were inoculated in the subcutis of the right axilla. […] Tumor growth was measured using calipers at 2-day or 3-day intervals in each treatment group. Tumor volumes were calculated using the equation V=a×b^2/2, where “a” is the length of the tumor and “b” is the width expressed in millimeters.

Data set [4] in a line: Weight determination, Balb/c mice (M109 study). Conditions: 1 μmol/kg and 2 μmol/kg TIW (6 doses). Type of data set: in vivo. The procedure:
(§1) The percentage weight change of the mice was determined in mice (5 mice/group) on the indicated days post-tumor inoculation (PTI) as shown in the graph for the samples described in the related tumor volume assay.

Data set [5] deals with FR-positive s.c. human xenograft KB tumors. As to the kind of experiment: Inhibition of tumor growth in mice, KB. In kind it is in vivo, nu/nu mice. Here is the method:
The anti-tumor activity of the compounds described herein, when administered intravenously (i.v.) to tumor-bearing animals, was evaluated in nu/nu mice bearing subcutaneous KB tumors. […] Tumor growth was measured using calipers at 2-day or 3-day intervals in each treatment group. Tumor volumes were calculated using the equation V=a×b^2/2, where “a” is the length of the tumor and “b” is the width expressed in millimeters.

Data set [6] is described as follows: Weight determination, nude mice. In kind it is in vivo, nu/nu mice. Here is the method: as §1
Data set [7] concerns folate receptor-positive KB cells. Type of data set: cell-based, human. The procedure: The compounds described herein were evaluated using an in vitro cytotoxicity assay that predicts the ability of the drug to inhibit the growth of folate receptor-positive KB cells. The compounds were comprised of folate linked to a respective chemotherapeutic drug, as prepared according to the protocols described herein. The KB cells were exposed for up to 7 h at 37° C. to the indicated concentrations of folate-drug conjugate in the absence or presence of at least a 100-fold excess of folic acid. The cells were then rinsed once with fresh culture medium and incubated in fresh culture medium for 72 hours at 37° C. Cell viability was assessed using a ^3H-thymidine incorporation assay.
As shown in the figures herein, dose-dependent cytotoxicity was measurable, and in most cases, the IC50 values (concentration of drug conjugate required to reduce ^3H-thymidine incorporation into newly synthesized DNA by 50%) were in the low nanomolar range.

In data set [8] the test system is folate receptor positive human tumors. In kind it is in vivo, nude mice. As to conditions: 2 μmol/kg TIW, five animals.
For data set [9], the system named is FR-positive M109 tumors. As to the kind of experiment: Inhibition of tumor growth in mice, M109. Type of data set: in vivo, Balb/c mice. Here is the method:
The anti-tumor activity of the compounds described herein, when administered intravenously (i.v.) to tumor-bearing animals, was evaluated in Balb/c mice bearing subcutaneous M109 tumors. […] Tumor growth was measured using calipers at 2-day or 3-day intervals in each treatment group. Tumor volumes were calculated using the equation V=a×b^2/2, where “a” is the length of the tumor and “b” is the width expressed in millimeters.

The mark [10] stands for this setting: 1 μmol/kg TIW for 2 weeks plus 40 μmol/kg EC20 (rhenium complex).
The mark [11] stands for this setting: 1 μmol/kg TIW for 2 weeks, without EC20.

T1 sequence (P15328 25-234): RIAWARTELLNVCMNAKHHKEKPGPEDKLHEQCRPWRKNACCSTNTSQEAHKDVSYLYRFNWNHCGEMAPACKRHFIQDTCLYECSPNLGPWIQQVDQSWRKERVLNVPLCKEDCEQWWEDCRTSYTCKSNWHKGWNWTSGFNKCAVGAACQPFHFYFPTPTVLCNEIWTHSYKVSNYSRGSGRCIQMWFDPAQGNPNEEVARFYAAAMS

As for `CC[C@]1(O)C[C@@H]2CN(CCc3c([nH]c4ccccc34)[C@@](C(=O)OC)(c3cc4c(cc3OC)N(C)[C@H]3[C@@](O)(C(=O)NNC(=O)OCCSSC[C@H](NC(=O)[C@H](CN)NC(=O)[C@H](CC(=O)O)NC(=O)[C@H](CC(=O)O)NC(=O)[C@H](CC(=O)O)NC(=O)CC[C@H](NC(=O)c5ccc(NCc6cnc7nc(N)[nH]c(=O)c7n6)cc5)C(=O)O)C(=O)O)[C@H](O)[C@]5(CC)C=CCN6CC[C@]43[C@@H]65)C2)C1` [Example 9], in data set [1], the “relative binding affinity at folic acid receptors” value (shortened to “relative binding affinity”) is recorded as 0.24.
Take `Nc1nc2ncc(CNc3ccc(C(=O)N[C@@H](CCC(=O)O)C(=O)O)cc3)nc2c(=O)[nH]1` [folic acid, reference compound]: the “relative binding affinity” value in data set [1] worked out at 1.0.
`CC[C@]1(O)CC2CN(CCc3c([nH]c4ccccc34)[C@@](C(=O)OC)(c3cc4c(cc3OC)N(C)[C@H]3[C@@](O)(C(=O)NNC(=O)OCCSSC[C@H](NC(=O)[C@H](CNC(=O)CCSSCCNC5=C(C)C(=O)C6=C(C5=O)[C@@H](COC(N)=O)[C@@]5(OC)[C@H]7N[C@H]7CN65)NC(=O)[C@H](CC(=O)O)NC(=O)[C@H](CC(=O)O)NC(=O)[C@H](CC(=O)O)NC(=O)CC[C@H](NC(=O)c5ccc(NCc6cnc7nc(N)[nH]c(=O)c7n6)cc5)C(=O)O)C(=O)O)[C@H](O)[C@]5(CC)C=CCN6CC[C@]43[C@@H]65)C2)C1` (stereo partly shown) [Example 11]: the “in vitro cytotoxic activity with excess folic acid” value in data set [2] is “reduced in the presence of excess folic acid”. Also, in data set [3], the “activity on 4T1 tumors” value is recorded as “does not have any effect on the tumors compared to controls”. Also, the “weight of Balb/c mice” value in [4] is on record as “little effect on the weight of the mice; also recorded: absence of an effect”. The “complete responses, KB tumors” value in data set [5] (1 μmol/kg TIW for 2 weeks (6 doses), alone) is reported as 5/5. Moreover, in data set [5] (setting [10]), the “complete responses, KB tumors, with EC20” value is on record as 0/5 and the “growth of KB tumors, with EC20” value is recorded as “inhibitory effect is prevented (competed against) by the EC20 rhenium complex”. Further, the “growth of KB tumors” value in data set [5] (setting [11]) is “inhibits the growth of solid tumors”. For the same molecule, the “activity on established s.c. KB tumors versus controls” value in data set [5] (1 μmol/kg TIW for two weeks, FIG. 13) is reported as “superior to controls”. In data set [5] (2 μmol/kg TIW, 2 weeks, start at 250, 500 or 750 mm^3), the “activity on large s.c. KB tumors” value was “inhibits the growth of large tumors and gives a complete response in test animals”. Besides, the “relative binding affinity” value in data set [1] came to 0.21. Further, the “weight of nu/nu (nude) mice, with EC20” value in [6] (setting [10]) is reported as “absence of an effect”. The “weight of nu/nu (nude) mice” value in data set [6] (setting [11]) was “did not affect the weight of the test animal significantly from controls; also recorded: absence of an effect”. Besides, the “weight of nude mice” value in data set [6] (2 μmol/kg TIW, FIG. 11) is “did not significantly affect the weight of the test animals; also recorded: absence of an effect”. Moreover, the “potency of Example 11 relative to Example 9” value in data set [7] (3H-thymidine incorporation IC50 compared) is recorded as “more than 10 fold”. Besides, in [7] (KB cells, without excess folic acid, read-out: IC50, 3H-thymidine incorporation), the IC50 was 5 nM. For the same molecule, the “effect of excess folic acid on activity in 3H-thymidine incorporation” value in data set [7] (with excess folic acid) was “folic acid competes with the conjugates for binding to the folate receptor”. For the same molecule, the “complete responses, FR-positive human tumors” value in [8] is given as “complete response in five out of five test animals”. In data set [9] (1 μmol/kg and 2 μmol/kg TIW (6 doses)), the “growth of M109 tumors” value is listed as “inhibited the growth of solid tumors”. The “growth of M109 tumors, higher dose” value in [9] (2 μmol/kg TIW (6 doses), also after dosing ended on day 20) is listed as “strong inhibition of tumor growth”. The “complete responses, M109 tumors” value in data set [9] (2 μmol/kg TIW (6 doses), five animals) is recorded as “all five animals showed a complete response”.
